From patent publication US20110098180A1, “Herbicide-Resistant Plants, And Polynucleotides And Methods For Providing Same” (United States Department of Agriculture, priority 2002, published 2011)

Tests used:
[1] = molecular target: hydrilla PDS Arg^304 → Threonine, His-tagged (Hydrilla verticillata, UniProt Q66PY0, R304T); assay: Cross-resistance testing, His-tagged column-purified PDS (Table 2A); assay type: biochemical; details: Threonine at 304; His-tagged, column-purified PDS; read-out: I50
Excerpt: (§1) In further cross-resistance testing similar to that described above, an alternative production and purification protocol was used in the preparation of the mutant PDS proteins, and the activity of the proteins was again tested using the same testing protocol. The alternative approach utilized His-tagging and column purification of the mutant PDS protins. The results are shown in. Table 2A below.
(§2) The plasmid pHy4ATG5 was made by cloning the Phytoene Desaturase (pds) gene from Hydrilla verticillata, including 323 by upstream of the beginning of the putative mature protein, into the vector TOPO4 (Invitrogen, Carlsbad, Calif.): The 1-323 by region contained three potential start codons (ATG)(positions 1, 114 and 225 bp) in frame with pds. In order to express pds in bacteria, deletion clones were made for each of the three potential start codons with and without ATG. Only the results for possible origins of translation 1 and 225 by (named ORF and 3ORF) are reported here. pds was PCR amplified and subcloned into TOPO4 using pHy4ATG5 as template and the reverse primer RPDS—1849 (5′[…] 3′). The forward primers used were ORF (5′ […] 3′), ORF-ATG (5′ […] 3′), 3_ORF (5′[…] 3′) and 3_ORF-ATG (5′ […] 3′). The resulting plasmids were named pORF, pORF-ATG (minus ATG codon), p3ORF and p3ORF-ATG. The pds-containing EcoRI-fragments of these plasmids were subcloned into the EcoRI site of pRSETb vector (Invitrogen) for Histidine tagging and bacterial expression. The resulting constructs were pHy4SET, pHy4SET-ATG (minus ATG), p3ORFSET and p3ORFSET-ATG.
(§3) Plasmid p3ORF-ATG was later mutagenized at the amino acid 304 of pds to replace the amino acid Arginine (Arg) by Histidine (His), Threonine (Thr), Serine (Ser), or Cysteine (Cys), using the QuickChange™ Site-Directed Mutagenesis Kit of Stratagene (La Jolla, Calif.). Primers used to replace Arg by His were Hyd-His-For (5′[…] 3′) and Hyd-His-Rev (5′ […] 3′); to replace Arg by Thr we used primers Hyd-Thr-For (5′[…] 3′) and Hyd-Thr-Rev (5′[…] 3′); to replace Arg by Ser we used Hyd-Ser-For (5′[…] 3′) and Hyd-Ser-Rev (5′[…] 3′); and Arg was replaced by Cys using Hyd-Cys-For (5′[…] 3′) and Hyd-Cys-Rev (5′[…] 3′). Resulting plasmids were named: p3ORFHisSet-ATG, p3ORFThrSet-ATG, p3ORFSerSet-ATG and p3ORFCysSet-ATG.
(§4) All pRSET derived constructs were transformed into BL21(DE3)pLysS cells (Invitrogen), induced with IPTG for protein expression, and the His tag overproduced proteins analyzed by Western blot using Anti-HisG antibody (Invitrogen, cat. #R940-25).
(§5) When working with His-tagged PDS proteins expressed as described in Example 4, the purified protein used for testing was prepared as follows. BL21(DE3)pLysS cells were grown overnight in 500 ml Luria Broth (LB) supplemented with carbenicillin (100 mg/l) and cloramphenicol (60 mg/l) at 37° C., and induced with 0.3 mM isopropylthio-β-D-galactoside (IPTG) for 3 hrs. Cells were lysed using a French press (Spectronics Instrument) at 20,000 psi and overexpressed PDS was purified on a nickel activated Hitrap Chelating HP column according to the manufacturers instructions (Amersham Bioscience).
(§6) Generally, PDS protein fractions prepared as described above (Non-His-tagged and His-tagged) were mixed with a soluble fraction from phytoene-producing E. coli cells. For the phytoene producing cells, a plasmid construct containing the genes GGPP synthase and phytoene synthase from Erwinia uredovora, transformed into the appropriate E. coli strain, was used (see, Misawa et al., J. of Bacteriology 177:6575, 1995). This E. coli strain was separately cultured and lysed, and its soluble components collected (“the EB extract”) in a fashion similar to that described above for the PDS-producing cells.
(§7) His-tagged, purified proteins prepared as described above were transferred to the assay buffer on a PD10 column (Amersham Bioscience) and the concentration was adjusted to 100 μg/mL. […]

[2] = tested on: hydrilla PDS Arg^304 → Threonine, His-tagged; assay: as above; assay type: biochemical, Hydrilla verticillata; details: Threonine at 304 relative to Arginine; Table 2A
Excerpt: as §1, §2, §3, §4, §5, §6, §7

Chain of hydrilla PDS Arg^304 → Threonine, His-tagged (Hydrilla verticillata, UniProt Q66PY0, R304T) (Q66PY0 77-580 R304T): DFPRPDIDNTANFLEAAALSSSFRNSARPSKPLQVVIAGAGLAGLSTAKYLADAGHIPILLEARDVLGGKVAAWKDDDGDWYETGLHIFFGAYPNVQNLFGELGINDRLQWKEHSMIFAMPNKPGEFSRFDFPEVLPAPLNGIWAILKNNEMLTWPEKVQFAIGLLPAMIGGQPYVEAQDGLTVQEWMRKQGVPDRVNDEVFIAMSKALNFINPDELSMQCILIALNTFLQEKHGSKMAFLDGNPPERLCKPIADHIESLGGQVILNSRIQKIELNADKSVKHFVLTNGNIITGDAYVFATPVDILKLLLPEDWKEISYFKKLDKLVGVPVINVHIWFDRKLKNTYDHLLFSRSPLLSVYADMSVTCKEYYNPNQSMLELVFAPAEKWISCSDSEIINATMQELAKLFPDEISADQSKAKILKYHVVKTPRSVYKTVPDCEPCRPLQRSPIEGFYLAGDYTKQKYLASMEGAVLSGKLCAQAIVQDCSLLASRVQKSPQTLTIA

Compound	IC50 [1] [µM]	R/S [2]
CCC(Oc1ccc(F)c(C(F)(F)F)c1)C(=O)NCc1ccccc1 (stereo not shown) [Beflubutamid]	106	1.5
O=C(Nc1ccc(F)cc1F)c1cccnc1Oc1cccc(C(F)(F)F)c1 [Diflufenican]	104	1.0
O=C1C(Cl)C(CCl)CN1c1cccc(C(F)(F)F)c1 (stereo not shown) [Fluorochloridone]	210	1.6
CNC1=C(c2cccc(C(F)(F)F)c2)C(=O)C(c2ccccc2)O1 (stereo not shown) [Flurtamone]	1780	5.9
CNc1cnn(-c2cccc(C(F)(F)F)c2)c(=O)c1Cl [Norflurazon]	1510	30.0
O=C(Nc1ccc(F)cc1)c1cccc(Oc2cccc(C(F)(F)F)c2)n1 [Piconilafen, Picolinafen]	60	0.2
Fluridone		7.8
